Laboratory results published in patent publication US20240016161A1, “HERBICIDAL MENTHA PLANT EXTRACT COMPOSITIONS AND METHODS OF USING SAME” (Harpe Bioherbicide Solutions Inc., priority 2020, published 2024).

Assays:
Rye [1] = test: PRE germination synergy in Petri dishes; type: in vivo, ryegrass; conditions: preemergence, Topramezone / Mentha spicata, rate in label
Protocol: (§1) Petri Dish. Seed impacts. Dishes layered with filter paper and filtered water added with various broadleaf and unwanted grass species to initiate germination. Conducted in the dark at 75/60° F. day night temperature with relative humidity at 50%. […] The percent volume/volume of extract to water carrier is summarized above. The amount in mg/ml was calculated based on the percent of extract mixed with water. […] Seeds have water added every two days. […] Plates are exposed to 12/12 hour day/night cycle after 7 days.

2-leaf corn = test: Disrupting metabolism of herbicide resistant plants in pots; type: in vivo; conditions: POST to 2-leaf corn, Topramezone / Mentha piperata, rate in label
Description: (§2) Testing involves the same methods as listed above but with weeds/plants which are resistant to herbicides. An example plant is corn, which uses a cytochrome P450 enzyme(s) to detoxify certain commercially available herbicides (Ex. mesotrione). Corn also uses a glutathione S-transferase detoxification system for other commercially available herbicides (ex. Atrazine). Still other examples of herbicide detoxification include “Phase I” reactions—dechlorination, hydroxylation, decarboxylation, dealkylation, oxidation/reduction, and hydrolysis are the initial chemical reactions that occur. These reactions detoxify the herbicide and predispose the resultant metabolites to conjugation. “Phase II” reactions are another example, by conjugation with sugars, amino acids or natural plant constituents (metabolites are strongly bound). Also, “Phase II” I reactions are unique to plants and consist of secondary conjugation reactions or the formation of insoluble bound residues. Most crops grown in the world utilize detoxification, mixed function oxidase, enzymes to protect themselves from herbicides and other xenobiotics. Weeds also utilize this system of enzymes, as well as other biochemical actions, to prevent herbicides from damaging or killing the weeds. […]

Timothy [2] = test: Disrupting metabolism of herbicide resistant plants in pots, green loss; type: in vivo; conditions: POST, Topramezone / Mentha piperata, rate in label
Description: as §2

seedlings = test: PRE germination synergy in Petri dishes, bleaching; type: in vivo, ryegrass and Timothy; conditions: preemergence, Topramezone / Mentha spicata, rate in label
Protocol: as §1

Timothy [3] = test: PRE germination synergy in Petri dishes; type: in vivo; conditions: preemergence, Topramezone / Mentha spicata, rate in label
Protocol: as §1

Timothy [4] = test: PRE synergy of weed control in pots/soil; conditions: two weeks after planting, Pendimethalin / Mentha piperata, rate in label
Protocol: (§4) Potted soil. Commercial potting mix is used as a base with approximately 2 inches of 5% organic matter soil used on the top. Seeds are sown in the soil between 1 cm and 2.5 cm (as indicated by best practices for each plant-seed), filtered water added with various broadleaf and grass species to initiate germination. Conducted in the dark at 75/60 F day night temperature with relative humidity at 50%. Seeds are allowed to imbibe water for 24 hours. […] Seeds, wells have water added every two days. Seeds are monitored for 14 days following treatment. Visual rating for germination, radicle, shoot, and root elongation are recorded. Commercial herbicides are also used at the US label recommended rate for treatment as a positive control.

Rye [5] = test: PRE synergy of weed control in pots/soil; conditions: two weeks after planting, Pendimethalin / Mentha piperata, rate in label
Protocol: as §4

Rye [6] = test: POST synergy treatments in pots; type: in vivo, ryegrass; conditions: POST emergence to 10 cm plants
Protocol: (§3) Potted plants. These assays are conducted in pots using a commercial potting media to establish broadleaf and grass plants with at least one true leaf. The cotyledons are not treated in these assays.

Timothy [7] = test: POST synergy treatments in pots; type: in vivo; conditions: POST emergence to 10 cm plants
Protocol: as §3

[8] = Glyphosate / Mentha piperata, 7 days
[9] = Glyphosate / Mentha piperata, 14 days
[10] = Atrazine / Mentha piperata, rate in label

Cc1c(C(=O)c2cnn(C)c2O)ccc(S(C)(=O)=O)c1C1=NOCC1 [Topro 1x alone, Topramezone]
PRE Germination % control Rye (Rye [1]): 50%
% Control 14 Day (2-leaf corn): 0%
% Green loss Timothy 14 Day (Timothy [2]): 5%
% bleaching of seedlings (seedlings): 50%
PRE Germination % control Timothy (Timothy [3]): 60%

CCC(CC)Nc1c([N+](=O)[O-])cc(C)c(C)c1[N+](=O)[O-] [Pendi 1x, Pendimethalin]
% control Timothy (Timothy [4]): 50%
% control Timothy (Timothy [4]; listed as Pendi 2x): 75%
% control Timothy (Timothy [4]; listed as Pendi 4x): 83%
% control Rye (Rye [5]): 37%
% control Rye (Rye [5]; listed as Pendi 2x): 57%
% control Rye (Rye [5]; listed as Pendi 4x): 92%

O=C(O)CNCP(=O)(O)O [Glyphosate 1x alone, Glyphosate]
% control Rye 7 days (Rye [6]; [8]): 0%
% control Rye 14 Days (Rye [6]; [9]): 85%
% control Timothy 7 days (Timothy [7]; [8]): 0%
% control Timothy 14 Days (Timothy [7]; [9]): 90%

CCNc1nc(Cl)nc(NC(C)C)n1 [Atrazine 1x alone, Atrazine]
% control Rye (Rye [6]; [10]): 55%
% control Timothy (Timothy [7]; [10]): 60%
